Laboratory results: patent US10202361B2, “Pyridazinones as herbicides” (E I DU PONT DE NEMOURS AND COMPANY, priority 2014, dated 2019)
Read-outs that look alike come from different tables or passages of the source.

What was measured:
Test in all cases: Test C pre-/postemergence greenhouse herbicide test
Format in all cases: in vivo
[1] = system: wheat (winter wheat, Triticum aestivum); settings: Triticum aestivum, Wheat, read-out: Plant response rating; for plant injury at 62 g/ha: 62 g ai/ha; for plant injury at 125 g/ha: 125 g ai/ha; for plant injury at 250 g/ha: 250 g ai/ha
Outline: (§1)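 Seeds sown in loam soil–sand blend were treated preemergence; plants at 2 to 18 cm (1- to 4-leaf stage) in peat-based medium were treated postemergence. Test chemicals were formulated in a non-phytotoxic solvent mixture with surfactant. After 13 to 15 d in greenhouse, injury was rated visually versus controls, 0 (no effect) to 100 (complete control).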

[2] = system: crabgrass, Large (large crabgrass, Digitaria sanguinalis); settings: Digitaria sanguinalis, Crabgrass, Large, read-out: Plant response rating; for pest or weed control at 31 g/ha: 31 g ai/ha; for pest or weed control at 62 g/ha: 62 g ai/ha; for pest or weed control at 125 g/ha: 125 g ai/ha; for pest or weed control at 250 g/ha: 250 g ai/ha
Outline: as §1

[3] = system: kochia (Kochia scoparia); settings: Postemergence
Outline: as §1

[4] = system: waterhemp (common waterhemp, Amaranthus rudis); settings: Waterhemp
Outline: as §1

[5] = system: galium (catchweed bedstraw, Galium aparine); settings: Galium, read-out: Plant response rating; for pest or weed control at 62 g/ha: 62 g ai/ha; for pest or weed control at 125 g/ha: 125 g ai/ha; for pest or weed control at 250 g/ha: 250 g ai/ha
Outline: as §1

[6] = system: morningglory (Ipomoea coccinea); settings: Morningglory
Outline: as §1

[7] = system: oat, wild (wild oat, Avena fatua); settings: Postemergence
Outline: as §1

[8] = system: blackgrass (Alopecurus myosuroides); settings: Alopecurus myosuroides, Blackgrass, read-out: Plant response rating; for pest or weed control at 31 g/ha: 31 g ai/ha; for pest or weed control at 62 g/ha: 62 g ai/ha; for pest or weed control at 125 g/ha: 125 g ai/ha; for pest or weed control at 250 g/ha: 250 g ai/ha
Outline: as §1

[9] = system: barnyardgrass (Echinochloa crus-galli); settings: Barnyardgrass
Outline: as §1

[10] = system: ragweed (common ragweed, Ambrosia elatior); settings: Ambrosia artemisiifolia, Ragweed, read-out: Plant response rating; for pest or weed control at 31 g/ha: 31 g ai/ha; for pest or weed control at 62 g/ha: 62 g ai/ha; for pest or weed control at 125 g/ha: 125 g ai/ha
Outline: as §1

[11] = system: ryegrass, Italian (Italian ryegrass, Lolium multiflorum); settings: Lolium multiflorum, Ryegrass, Italian, read-out: Plant response rating; for pest or weed control at 31 g/ha: 31 g ai/ha; for pest or weed control at 62 g/ha: 62 g ai/ha; for pest or weed control at 125 g/ha: 125 g ai/ha; for pest or weed control at 250 g/ha: 250 g ai/ha
Outline: as §1

[12] = post-emergence, Postemergence, 31 g ai/ha

Compound: Cc1cc(=O)n(-c2ccc(C(F)(F)F)cc2)nc1Cc1ccnc(C(F)(F)F)c1 [Compound 2, 5-methyl-2-[4-(trifluoromethyl)phenyl]-6-[[2-(trifluoromethyl)-4-pyridinyl]methyl]-3(2H)-pyridazinone]
- plant injury at 31 g/ha [1, 12]: 5%
- plant injury at 62 g/ha ([1]; post-emergence, Postemergence): 5%
- plant injury at 125 g/ha ([1]; post-emergence, Postemergence): 5%
- plant injury at 250 g/ha ([1]; post-emergence, Postemergence): 5%
- plant injury at 62 g/ha ([1]; pre-emergence, Preemergence): 0%
- plant injury at 125 g/ha ([1]; pre-emergence, Preemergence): 10%
- plant injury at 250 g/ha ([1]; pre-emergence, Preemergence): 30%
- pest or weed control at 31 g/ha ([2]; post-emergence, Postemergence): 5%
- pest or weed control at 62 g/ha ([2]; post-emergence, Postemergence): 5%
- pest or weed control at 125 g/ha ([2]; post-emergence, Postemergence): 15%
- pest or weed control at 250 g/ha ([2]; post-emergence, Postemergence): 35%
- pest or weed control at 31 g/ha ([2]; pre-emergence, Preemergence): 75%
- pest or weed control at 62 g/ha ([2]; pre-emergence, Preemergence): 80%
- pest or weed control at 125 g/ha ([2]; pre-emergence, Preemergence): 100%
- pest or weed control at 250 g/ha ([2]; pre-emergence, Preemergence): 100%
- Plant response rating ([3]; 31 g ai/ha): 80
- Plant response rating ([3]; 62 g ai/ha): 85
- Plant response rating ([3]; 125 g ai/ha): 90
- Plant response rating ([3]; 250 g ai/ha): 90
- Plant response rating ([4]; Postemergence, 31 g ai/ha): 75
- Plant response rating ([4]; Postemergence, 62 g ai/ha): 75
- Plant response rating ([4]; Postemergence, 125 g ai/ha): 75
- Plant response rating ([4]; Postemergence, 250 g ai/ha): 80
- Plant response rating ([4]; Preemergence, 62 g ai/ha): 100
- Plant response rating ([4]; Preemergence, 125 g ai/ha): 100
- Plant response rating ([4]; Preemergence, 250 g ai/ha): 100
- pest or weed control at 31 g/ha [5, 12]: 50%
- pest or weed control at 62 g/ha ([5]; post-emergence, Postemergence): 80%
- pest or weed control at 125 g/ha ([5]; post-emergence, Postemergence): 80%
- pest or weed control at 250 g/ha ([5]; post-emergence, Postemergence): 85%
- pest or weed control at 62 g/ha ([5]; pre-emergence, Preemergence): 85%
- pest or weed control at 125 g/ha ([5]; pre-emergence, Preemergence): 98%
- pest or weed control at 250 g/ha ([5]; pre-emergence, Preemergence): 100%
- Plant response rating ([6]; Postemergence, 31 g ai/ha): 10
- Plant response rating ([6]; Postemergence, 125 g ai/ha): 15
- Plant response rating ([6]; Postemergence, 250 g ai/ha): 15
- Plant response rating ([6]; Preemergence, 31 g ai/ha): 55
- Plant response rating ([6]; Preemergence, 62 g ai/ha): 65
- Plant response rating ([6]; Preemergence, 125 g ai/ha): 85
- Plant response rating ([6]; Preemergence, 250 g ai/ha): 100
- Plant response rating ([7]; 31 g ai/ha): 5
- Plant response rating ([7]; 62 g ai/ha): 5
- Plant response rating ([7]; 125 g ai/ha): 5
- Plant response rating ([7]; 250 g ai/ha): 5
- pest or weed control at 31 g/ha ([8]; post-emergence, Postemergence): 5%
- pest or weed control at 62 g/ha ([8]; post-emergence, Postemergence): 5%
- pest or weed control at 125 g/ha ([8]; post-emergence, Postemergence): 10%
- pest or weed control at 250 g/ha ([8]; post-emergence, Postemergence): 15%
- pest or weed control at 31 g/ha ([8]; pre-emergence, Preemergence): 10%
- pest or weed control at 62 g/ha ([8]; pre-emergence, Preemergence): 45%
- pest or weed control at 125 g/ha ([8]; pre-emergence, Preemergence): 90%
- pest or weed control at 250 g/ha ([8]; pre-emergence, Preemergence): 90%
- Plant response rating ([9]; Postemergence, 31 g ai/ha): 5
- Plant response rating ([9]; Postemergence, 62 g ai/ha): 10
- Plant response rating ([9]; Postemergence, 125 g ai/ha): 10
- Plant response rating ([9]; Postemergence, 250 g ai/ha): 25
- Plant response rating ([9]; Preemergence, 31 g ai/ha): 65
- Plant response rating ([9]; Preemergence, 62 g ai/ha): 70
- Plant response rating ([9]; Preemergence, 125 g ai/ha): 90
- Plant response rating ([9]; Preemergence, 250 g ai/ha): 98
- pest or weed control at 31 g/ha ([10]; post-emergence, Postemergence): 25%
- pest or weed control at 62 g/ha ([10]; post-emergence, Postemergence): 60%
- pest or weed control at 125 g/ha ([10]; post-emergence, Postemergence): 60%
- pest or weed control at 31 g/ha ([10]; pre-emergence, Preemergence): 15%
- pest or weed control at 62 g/ha ([10]; pre-emergence, Preemergence): 60%
- pest or weed control at 125 g/ha ([10]; pre-emergence, Preemergence): 60%
- pest or weed control at 250 g/ha ([10]; pre-emergence, Preemergence, 250 g ai/ha): 60%
- pest or weed control at 31 g/ha ([11]; post-emergence, Postemergence): 5%
- pest or weed control at 62 g/ha ([11]; post-emergence, Postemergence): 5%
- pest or weed control at 125 g/ha ([11]; post-emergence, Postemergence): 5%
- pest or weed control at 250 g/ha ([11]; post-emergence, Postemergence): 5%
- pest or weed control at 31 g/ha ([11]; pre-emergence, Preemergence): 5%
- pest or weed control at 62 g/ha ([11]; pre-emergence, Preemergence): 15%
- pest or weed control at 125 g/ha ([11]; pre-emergence, Preemergence): 65%
- pest or weed control at 250 g/ha ([11]; pre-emergence, Preemergence): 85%
